The values that follow come from patent US11312723B2, “Pyranopyrazole and pyrazolopyridine immunomodulators for treatment of autoimmune diseases” (The Rockefeller University, priority 2017, dated 2022).

Each structure is given as a SMILES string. pIC50: −log10 of the molar value. Where only a bound is given, the exact number is not on record here.

Chain of Human FXIIa (P00748 373-615): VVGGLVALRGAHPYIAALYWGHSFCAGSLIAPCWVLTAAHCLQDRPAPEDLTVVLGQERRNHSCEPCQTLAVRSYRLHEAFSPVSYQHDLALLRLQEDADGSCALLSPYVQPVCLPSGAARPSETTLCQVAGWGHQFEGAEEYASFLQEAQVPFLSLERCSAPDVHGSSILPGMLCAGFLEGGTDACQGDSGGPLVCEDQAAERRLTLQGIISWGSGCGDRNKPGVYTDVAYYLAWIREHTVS
Chain of Human FXIIa (P00748 20-372 partner): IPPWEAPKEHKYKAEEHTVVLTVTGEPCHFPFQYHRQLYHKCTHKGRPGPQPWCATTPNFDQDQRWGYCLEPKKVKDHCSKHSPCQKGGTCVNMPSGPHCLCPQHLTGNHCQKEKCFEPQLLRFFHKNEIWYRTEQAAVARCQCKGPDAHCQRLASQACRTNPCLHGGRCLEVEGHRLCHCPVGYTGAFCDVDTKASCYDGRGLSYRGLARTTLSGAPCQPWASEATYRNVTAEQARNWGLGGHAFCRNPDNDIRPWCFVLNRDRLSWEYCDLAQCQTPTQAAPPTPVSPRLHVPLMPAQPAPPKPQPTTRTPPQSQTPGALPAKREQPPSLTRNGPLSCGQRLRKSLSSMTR

This assay concerns the target Human FXIIa (Homo sapiens (Human), UniProt P00748). Kind of assay: Factor XIIa (FXIIa) inhibitory activity, chromogenic substrate (Pefachrome XIIa) cleavage. It is filed as biochemical. As to conditions: 10 min pre-incubation, Pefachrome XIIa 400 μM. The protocol: Factor XIIa (FXIIa) Inhibitory Activity:
In a 96-well clear bottom plate, 80 μl of assay buffer was added to each well. Assay buffer consists of 0.5× Hank's Balanced Salt Solution (Invitrogen), buffered with 25 mM HEPES pH 7.4 (Invitrogen) and 0.5× Tris-buffered saline with Tween-20 0.05% (Santa Cruz Biotechnology). Test compounds were first dissolved in DMSO (Sigma) and then 4 μl were added to test wells containing assay buffer. Serial dilutions using an automated multi-channel pipette were used to generate a concentration range of approximately 1-100 μM. Human FXIIa (Enzyme Research Labs) was diluted in assay buffer to a final concentration of 12.5 nM. 80 μl of this enzyme solution was added to the assay wells. The enzyme/compound mixtures were incubated for 10 minutes at room temperature. Chromogenic substrate (Pefachrome XIIa; Enzyme Research Labs) was added to assay wells at a final concentration of 400 μM. The assay plate was spun for 1 minute at 1500 g and then read at 37° C. in a SpectraMax M2 plate reader (λ=405 nm). Activity was quantified as the rate of change in absorbance, which corresponds to the rate of substrate cleavage. IC50 values were determined as the concentration of inhibitor that produced 50% of the rate of change of control wells without any inhibitor. For compounds with activity <1 μM, the assay was repeated with a lower concentration range, typically from 10-1000 nM.
As for `CC(C)S(=O)(=O)N1CCc2c(N)nn(C(=O)C3CCNc4ccc(F)cc43)c2C1` (stereo not drawn) [Example 137, (3-amino-6-(isopropyl-sulfonyl)-4,5,6,7-tetrahydro-pyrazolo[3,4-c]pyridin-1-yl)(6-fluoro-1,2,3,4-tetrahydro-quinolin-4-yl)methanone], the pIC50 (commonly −log10 of the IC50, conventionally taken in molar units) is 5.15. In turn, `Nc1nn(C(=O)C2CCNc3ccc(F)cc32)c2c1CCN(S(=O)(=O)C(F)F)C2` (stereo not drawn) [Example 160, (3-amino-6-(difluoromethyl-sulfonyl)-4,5,6,7-tetrahydro-pyrazolo[3,4-c]pyridin-1-yl)(6-fluoro-1,2,3,4-tetrahydro-quinolin-4-yl)methanone] had a pIC50 of 4.80. With `CCc1cccc2c1NCCC2C(=O)n1nc2c(c1N)CCN(S(C)(=O)=O)C2` (stereo not drawn) [Example 65, (3-amino-6-(methylsulfonyl)-4,5,6,7-tetrahydropyrazolo[3,4-c]pyridin-2-yl)(8-ethyl-1,2,3,4-tetrahydroquinolin-4-yl)methanone], the pIC50 is 7.05.

`COc1ccc2c(c1)C(C(=O)n1nc(N)c3c1CN(S(C)(=O)=O)CC3)CCN2` (stereo not drawn) [Example 23, (3-amino-6-(methylsulfonyl)-4,5,6,7-tetrahydropyrazolo[3,4-c]pyridin-1-yl)(6-methoxy-1,2,3,4-tetrahydroquinolin-4-yl)methanone] gave a negative-log IC50 (pIC50) of less than 4.22. The figure for `CS(=O)(=O)N1CCc2c(nn(C(=O)C3CCNc4c(Cl)cccc43)c2N)C1` (single isomer, unassigned) [Example 59, (R*)-(3-amino-6-(methylsulfonyl)-4,5,6,7-tetrahydropyrazolo[3,4-c]pyridin-2-yl)(8-chloro-1,2,3,4-tetrahydroquinolin-4-yl)methanone] is 4.46; for `Cc1cc(F)cc2c1NCC[C@H]2C(=O)n1nc2c(c1N)COCC2` (single isomer, unassigned) [Example 192, (R*)-(3-amino-6,7-dihydropyrano[4,3-c]pyrazol-2(4H)-yl)(6-fluoro-8-methyl-1,2,3,4-tetrahydro-quinolin-4-yl)methanone] it is 4.90; for `Cc1cc(F)cc2c1NCC[C@@H]2C(=O)n1nc2c(c1N)CNCC2` (single isomer, unassigned) [Example 82, (S*)-(3-amino-4,5,6,7-tetrahydropyrazolo[4,3-c]pyridin-2-yl)(6-fluoro-8-methyl-1,2,3,4-tetrahydroquinolin-4-yl)methanone] it is 7.15. On to `Cc1cccc2c1NCCC2C(=O)n1nc2c(c1N)CCN(S(C)(=O)=O)C2C` (single isomer, unassigned) [Example 78, (3-amino-7-methyl-6-(methylsulfonyl)-4,5,6,7-tetrahydropyrazolo[3,4-c]pyridin-2-yl)(8-methyl-1,2,3,4-tetrahydroquinolin-4-yl)methanone], for which the pIC50 was less than 4.10. The figure for `Nc1c2c(nn1C(=O)[C@@H]1CCNc3ccc(F)cc31)CNCC2` (single isomer, unassigned) [Example 147, (R*)-(3-amino-4,5,6,7-tetrahydro-pyrazolo[3,4-c]pyridin-2-yl)(6-fluoro-1,2,3,4-tetrahydro-quinolin-4-yl)methanone] is 5.00; for `Cc1cccc2c1NCCC2C(=O)n1nc(N)c2c1CCOC2` (stereo not drawn) [Example 189, (3-amino-6,7-dihydropyrano[4,3-c]pyrazol-1(4H)-yl)(8-methyl-1,2,3,4-tetrahydro-quinolin-4-yl)methanone] it is 4.40; for `COC(=O)N1CCc2c(N)nn(C(=O)C3CCNc4ccccc43)c2C1` (stereo not drawn) [Example 115, methyl 3-amino-1-(1,2,3,4-tetrahydro-quinoline-4-carbonyl)-4,5-dihydro-1H-pyrazolo[3,4-c]pyridine-6(7H)-carboxylate] it is 4.52. The figure for `Nc1nn(C(=O)C2CCNc3c(Cl)cccc32)c2c1CCNC2` (stereo not drawn) [Example 71, (3-amino-4,5,6,7-tetrahydropyrazolo[3,4-c]pyridin-1-yl)(8-chloro-1,2,3,4-tetrahydroquinolin-4-yl)methanone] is 5.30; for `CCc1ccc2c(c1)C(C(=O)n1nc3c(c1N)CCN(S(C)(=O)=O)C3)CCN2` (single isomer, unassigned) [Example 33, (R*)-(3-amino-6-(methylsulfonyl)-4,5,6,7-tetrahydropyrazolo[3,4-c]pyridin-2-yl)(6-ethyl-1,2,3,4-tetrahydroquinolin-4-yl)methanone] it is 5.00.

On to `CC(C)c1ccc2c(c1)C(C(=O)n1nc(N)c3c1CN(S(C)(=O)=O)CC3)CCN2` (stereo not drawn) [Example 46, (3-amino-6-(methylsulfonyl)-4,5,6,7-tetrahydropyrazolo[3,4-c]pyridin-1-yl)(6-isopropyl-1,2,3,4-tetrahydroquinolin-4-yl)methanone], for which the negative-log IC50 (pIC50) is less than 4.10. In turn, `Cc1cccc2c1NCC[C@H]2C(=O)n1nc2c(c1N)CCN(S(=O)(=O)C1COC1)C2` (single isomer, unassigned) [Example 186, (R*)-(3-amino-6-(oxetan-3-ylsulfonyl)-4,5,6,7-tetrahydro-pyrazolo[3,4-c]pyridin-2-yl)(8-methyl-1,2,3,4-tetrahydro-quinolin-4-yl)methanone] had a pIC50 of 4.40.

`Cc1cc2c(C(=O)n3nc(N)c4c3CN(Cc3ccccc3)CC4)cccc2[nH]1` [Example 11, (3-amino-6-benzyl-4,5,6,7-tetrahydropyrazolo[3,4-c]pyridin-1-yl)(2-methyl-1H-indol-4-yl)methanone] gave a pIC50 of 4.30. Turning to `CS(=O)(=O)N1CCc2c(N)nn(C(=O)C3CCNc4c3cccc4C(F)(F)F)c2C1` (stereo not drawn) [Example 68, (3-amino-6-(methylsulfonyl)-4,5,6,7-tetrahydropyrazolo[3,4-c]pyridin-1-yl)(8-(trifluoromethyl)-1,2,3,4-tetrahydroquinolin-4-yl)methanone], the pIC50 is less than 4.05. In turn, `Nc1nn(C(=O)C2CCNc3ccc(F)cc32)c2c1CCN(S(=O)(=O)CC(F)F)C2` (stereo not drawn) [Example 143, (3-amino-6-(2,2-difluoroethyl-sulfonyl)-4,5,6,7-tetrahydro-pyrazolo[3,4-c]pyridin-1-yl)(6-fluoro-1,2,3,4-tetrahydro-quinolin-4-yl)methanone] had a negative logarithm of the IC50 (pIC50) of 4.77. The figure for `CCc1cccc2c1NCCC2C(=O)n1nc(N)c2c1CN(S(C)(=O)=O)CC2` (stereo not drawn) [Example 66, (3-amino-6-(methylsulfonyl)-4,5,6,7-tetrahydropyrazolo[3,4-c]pyridin-1-yl)(8-ethyl-1,2,3,4-tetrahydroquinolin-4-yl)methanone] is less than 4.00; for `Cc1cccc2c1NCCC2C(=O)n1nc(N)c2c1CNCC2` (stereo not drawn) [Example 178, (3-amino-4,5,6,7-tetrahydro-pyrazolo[3,4-c]pyridin-1-yl)(8-methyl-1,2,3,4-tetrahydro-quinolin-4-yl)methanone] it is 4.22. The figure for `Cc1cccc2c1NCCC2C(=O)n1nc2c(c1N)CCN(S(C)(=O)=O)C2C` (single isomer, unassigned) [Example 79, (3-amino-7-methyl-6-(methylsulfonyl)-4,5,6,7-tetrahydropyrazolo[3,4-c]pyridin-2-yl)(8-methyl-1,2,3,4-tetrahydroquinolin-4-yl)methanone] is 5.52; for `CCc1ccc2c(c1)C(C(=O)n1nc(N)c3c1CN(S(C)(=O)=O)CC3)CCN2` (stereo not drawn) [Example 31, (3-amino-6-(methylsulfonyl)-4,5,6,7-tetrahydropyrazolo[3,4-c]pyridin-1-yl)(6-ethyl-1,2,3,4-tetrahydroquinolin-4-yl)methanone] it is 4.40; for `Nc1nn(C(=O)C2CCNc3ccc(F)cc32)c2c1COCC2` (stereo not drawn) [Example 75, (3-amino-6,7-dihydropyrano[4,3-c]pyrazol-1(4H)-yl)(6-fluoro-1,2,3,4-tetrahydroquinolin-4-yl)methanone] it is 4.60.

`CS(=O)(=O)N1CCc2c(N)nn(C(=O)C3CCNc4ncccc43)c2C1` (stereo not drawn) [Example 42, (3-amino-6-(methylsulfonyl)-4,5,6,7-tetrahydropyrazolo[3,4-c]pyridin-1-yl)(1,2,3,4-tetrahydro-1,8-naphthyridin-4-yl)methanone] showed a pIC50 of less than 4.10.

As to `Cc1cc(F)cc2c1NCCC2C(=O)n1nc2c(c1N)CCOC2` (single isomer, unassigned) [Example 77, (R*)-(3-amino-4,5-dihydropyrano[3,4-c]pyrazol-2(7H)-yl)(6-fluoro-8-methyl-1,2,3,4-tetrahydroquinolin-4-yl)methanone], the negative-log IC50 (pIC50) was 4.15. Compound `Cc1cccc2c1NCCC2C(=O)n1nc(N)c2c1CN(S(=O)(=O)C1COC1)CC2` (stereo not drawn) [Example 187, (3-amino-6-(oxetan-3-ylsulfonyl)-4,5,6,7-tetrahydro-pyrazolo[3,4-c]pyridin-1-yl)(8-methyl-1,2,3,4-tetrahydro-quinolin-4-yl)methanone] showed a pIC50 of 4.46. `Cc1cccc2c1NCC[C@@H]2C(=O)n1nc2c(c1N)CCN(S(=O)(=O)C1CCC1)C2` (single isomer, unassigned) [Example 182, (S*)-(3-amino-6-(cyclobutyl-sulfonyl)-4,5,6,7-tetrahydro-pyrazolo[3,4-c]pyridin-2-yl)(8-methyl-1,2,3,4-tetrahydro-quinolin-4-yl)methanone] had a negative logarithm of the IC50 (pIC50) of 7.40.
